Values after ≈ are worked out from the molar mass of the structure shown. Active and inactive are the calls of the source. The rule behind the calls is not given here.
Tests used:
[1] = test system: Enterococcus faecalis; experiment: Antibacterial activity against Enterococcus faecalis ATCC 29212 by CLSI protocol based assay; assay type: functional
[2] = test system: Staphylococcus aureus; experiment: Antibacterial activity against Staphylococcus aureus ATCC 29213 by CLSI protocol based assay; assay type: functional
[3] = test system: Stenotrophomonas maltophilia; experiment: Antibacterial activity against Stenotrophomonas maltophilia ATCC 17808 by CLSI protocol based assay; assay type: functional
[4] = test system: Escherichia coli; experiment: Antibacterial activity against Escherichia coli ATCC 25922 by CLSI protocol based assay; assay type: functional
[5] = Hemolytic activity in sheep RBC; assay type: toxicity, cell-based, Ovis aries, Erythrocyte; details: sheep red blood cells (erythrocytes)
[6] = test system: Staphylococcus aureus; experiment: Antibacterial activity against early exponential growth phase Staphylococcus aureus assessed as reduction in bacterial colony at 8 times of MIC measured at 8 to 24 hrs by time-kill kinetics assay; assay type: functional, organism-based; details: time 8-24 hrs
[7] = test system: Staphylococcus aureus; experiment: Post-antibiotic effect against Staphylococcus aureus at 1 times of MIC incubated for 1 hrs; assay type: functional
[8] = test system: Staphylococcus aureus; experiment: Post-antibiotic effect against Staphylococcus aureus at 4 times of MIC incubated for 1 hrs; assay type: functional
[9] = test system: Staphylococcus aureus; experiment: Antibacterial activity against Staphylococcus aureus measured after 3 to 6 hrs in presence of 50% plasma; assay type: functional, organism-based; details: time 3-6 hrs
[10] = test system: Cell membrane; experiment: Induction of cell membrane depolarization in Staphylococcus aureus assessed as increase in fluorescence intensity at 16 microg/ml by DiSC3(5) dye based assay; assay type: cell membranes; details: dose 16.0 µg/ml
[11] = test system: Staphylococcus aureus; experiment: Antibacterial activity against Staphylococcus aureus assessed as reduction in metabolic activity at sub-MIC; assay type: functional, organism-based
[12] = test system: Staphylococcus aureus; experiment: Antibacterial activity against Staphylococcus aureus assessed as inhibition of metabolic activity at MIC; assay type: functional
[13] = Hemolytic activity in sheep RBC assessed as hemolysis rate at 1280 microg/ml relative to control; assay type: toxicity, cell-based, Ovis aries, Erythrocyte; details: sheep red blood cells (erythrocytes), dose 1280 µg/ml, read-out: Activity
[14] = test system: Cell membrane; experiment: Induction of inner membrane permeabilization in Staphylococcus aureus assessed as increase in fluorescence intensity at 16 microg/ml by PI staining based analysis; assay type: cell membranes; details: dose 16.0 µg/ml
[15] = test system: Cell membrane; experiment: Induction of cell membrane damage in Staphylococcus aureus assessed as increase in protein leakage; assay type: cell membranes
[16] = test system: Staphylococcus aureus; experiment: Antibacterial activity against methicillin resistant Staphylococcus aureus clinical isolates assessed as 50% inhibition of bacterial growth; assay type: functional

| Molecule | MIC [1] [µg/mL] | MIC [2] [µg/mL] | MIC [3] [µg/mL] | MIC [4] [µg/mL] | HC50 [5] [µg/mL] | further results |
| --- | --- | --- | --- | --- | --- | --- |
| CCCCCCCCCCNC(=O)c1ccc[n+](CC2=C(C(=O)[O-])N3C(=O)[C@@H](NC(=O)/C(=N\OC(C)(C)C(=O)O)c4csc(N)n4)[C@H]3SC2)c1.O=C(O)C(F)(F)F | 128 | 32 | 64 | 32 | > 1280 |  |
| CCCCNC(=O)c1cc[n+](CC2=C(C(=O)[O-])N3C(=O)[C@@H](NC(=O)/C(=N\OC)c4csc(N)n4)[C@H]3SC2)cc1.O=C(O)C(F)(F)F | 4 | 4 | 1 | 1 | > 1280 |  |
| CCCCCCNC(=O)c1cc[n+](CC2=C(C(=O)[O-])N3C(=O)[C@@H](NC(=O)/C(=N\OC)c4csc(N)n4)[C@H]3SC2)cc1.O=C(O)C(F)(F)F | 4 | 2 | 2 | 2 | > 1280 |  |
| CCCCCCCCNC(=O)c1cc[n+](CC2=C(C(=O)O)N3C(=O)[C@@H](NC(=O)/C(=N\OC)c4csc(N)n4)[C@H]3SC2)cc1.O=C([O-])C(F)(F)F | 2 | 1 | 4 | 8 | > 1280 |  |
| CCCCCCNC(=O)c1ccc[n+](CC2=C(C(=O)[O-])N3C(=O)[C@@H](NC(=O)/C(=N\OC)c4csc(N)n4)[C@H]3SC2)c1.O=C(O)C(F)(F)F | 4 | 2 | 2 | 4 | > 1280 |  |
| CCCCCCNC(=O)c1cc[n+](CC2=C(C(=O)[O-])N3C(=O)[C@@H](NC(=O)/C(=N\OC(C)(C)C(=O)O)c4csc(N)n4)[C@H]3SC2)cc1.O=C(O)C(F)(F)F | 64 | 32 | 8 | 32 | > 1280 |  |
| CN[C@H](CC(C)C)C(=O)N[C@H]1C(=O)N[C@@H](CC(N)=O)C(=O)N[C@H]2C(=O)N[C@H]3C(=O)N[C@H](C(=O)N[C@H](C(=O)O)c4cc(O)cc(O)c4-c4cc3ccc4O)[C@H](O)c3ccc(c(Cl)c3)Oc3cc2cc(c3O[C@@H]2O[C@H](CO)[C@@H](O)[C@H](O)[C@H]2O[C@H]2C[C@](C)(N)[C@H](O)[C@H](C)O2)Oc2ccc(cc2Cl)[C@H]1O [VANCOMYCIN] | 2 (≈ 1.38 µM) |  |  |  | > 1280 | Activity [6]: Active; PAE [7]: 0.67 h; PAE [8]: 1.37 h; Activity [9]: Active; Activity [10]: inactive |
| CCCCNC(=O)c1cc[n+](CC2=C(C(=O)[O-])N3C(=O)[C@@H](NC(=O)/C(=N\OC(C)(C)C(=O)O)c4csc(N)n4)[C@H]3SC2)cc1.O=C(O)C(F)(F)F | 128 | 64 | 1 | 4 | > 1280 |  |
| CO/N=C(\C(=O)N[C@@H]1C(=O)N2C(C(=O)[O-])=C(COC(C)=O)CS[C@H]12)c1csc(N)n1.[Na+] [CEFOTAXIME SODIUM] | 16 | 1 | 2 | 2 | > 1280 | Activity [11]: Active; inhibition (INH) [12]: ~100% |
| CCCCCCCCCCNC(=O)c1cc[n+](CC2=C(C(=O)[O-])N3C(=O)[C@@H](NC(=O)/C(=N\OC)c4csc(N)n4)[C@H]3SC2)cc1.O=C(O)C(F)(F)F | 4 | 1 | 8 | 8 | > 1280 |  |
| CCCCNC(=O)c1ccc[n+](CC2=C(C(=O)[O-])N3C(=O)[C@@H](NC(=O)/C(=N\OC(C)(C)C(=O)O)c4csc(N)n4)[C@H]3SC2)c1.O=C(O)C(F)(F)F | 128 | 32 | 0.5 | 1 | > 1280 |  |
| CCCCCCCCNC(=O)c1ccc[n+](CC2=C(C(=O)[O-])N3C(=O)[C@@H](NC(=O)/C(=N\OC(C)(C)C(=O)O)c4csc(N)n4)[C@H]3SC2)c1.O=C(O)C(F)(F)F | 128 | 32 | 16 | 16 | > 1280 |  |
| CCCCCCCCCCNC(=O)c1ccc[n+](CC2=C(C(=O)[O-])N3C(=O)[C@@H](NC(=O)/C(=N\OC)c4csc(N)n4)[C@H]3SC2)c1.O=C(O)C(F)(F)F | 4 | 0.5 | 8 | 8 | > 1280 | hemolysis at 1280 microg/ml [13]: 12.7% |
| CC[C@H](C)[C@H](NC(=O)CN)C(=O)NCC(=O)N[C@@H](C)C(=O)N[C@H](C(=O)N[C@@H](CC(C)C)C(=O)N[C@@H](CCCCN)C(=O)N[C@H](C(=O)N[C@@H](CC(C)C)C(=O)N[C@H](C(=O)N[C@H](C(=O)NCC(=O)N[C@@H](CC(C)C)C(=O)N1CCC[C@H]1C(=O)N[C@@H](C)C(=O)N[C@@H](CC(C)C)C(=O)N[C@H](C(=O)N[C@@H](CO)C(=O)N[C@@H](Cc1c[nH]c2ccccc12)C(=O)N[C@H](C(=O)N[C@@H](CCCCN)C(=O)N[C@@H](CCCNC(=N)N)C(=O)N[C@@H](CCCCN)C(=O)N[C@@H](CCCNC(=N)N)C(=O)N[C@@H](CCC(N)=O)C(=O)N[C@@H](CCC(N)=O)C(N)=O)[C@@H](C)CC)[C@@H](C)CC)[C@@H](C)O)[C@@H](C)O)C(C)C)C(C)C [MELITTIN] | 2 (≈ 0.703 µM) |  | 8 (≈ 2.81 µM) |  |  | Activity [10]: Active; Activity [14]: Active; Activity [15]: Active; Activity [11]: Active; inhibition (INH) [12]: ~100% |
| CCCCCCCCCCNC(=O)c1cc[n+](CC2=C(C(=O)[O-])N3C(=O)[C@@H](NC(=O)/C(=N\OC(C)(C)C(=O)O)c4csc(N)n4)[C@H]3SC2)cc1.O=C(O)C(F)(F)F | > 128 | 32 | 128 | 64 | > 1280 |  |
| CCCCCCNC(=O)c1ccc[n+](CC2=C(C(=O)[O-])N3C(=O)[C@@H](NC(=O)/C(=N\OC(C)(C)C(=O)O)c4csc(N)n4)[C@H]3SC2)c1.O=C(O)C(F)(F)F | 128 | 32 | 4 | 4 | > 1280 |  |
| CC(C)(O/N=C(\C(=O)N[C@@H]1C(=O)N2C(C(=O)[O-])=C(C[n+]3ccccc3)CS[C@H]12)c1csc(N)n1)C(=O)O [CEFTAZIDIME] | 128 (≈ 234 µM) | 16 (≈ 29.3 µM) | 0.063 (≈ 0.115 µM) | 0.063 (≈ 0.115 µM) | > 1280 |  |
| CC[C@H]1OC(=O)[C@H](C)[C@@H](O[C@H]2C[C@@](C)(OC)[C@@H](O)[C@H](C)O2)[C@H](C)[C@@H](O[C@@H]2O[C@H](C)C[C@H](N(C)C)[C@H]2O)[C@](C)(O)C[C@@H](C)C(=O)[C@H](C)[C@@H](O)[C@]1(C)O [ERYTHROMYCIN] |  |  |  |  |  | MIC50 [16]: > 128 µg/mL |
| CCCCCCCCNC(=O)c1cc[n+](CC2=C(C(=O)[O-])N3C(=O)[C@@H](NC(=O)/C(=N\OC(C)(C)C(=O)O)c4csc(N)n4)[C@H]3SC2)cc1.O=C(O)C(F)(F)F | > 128 | 32 | 64 | 32 | > 1280 |  |
| GENTAMICIN |  |  |  |  |  | Activity [10]: inactive; Activity [14]: inactive |
| CCCCNC(=O)c1ccc[n+](CC2=C(C(=O)[O-])N3C(=O)[C@@H](NC(=O)/C(=N\OC)c4csc(N)n4)[C@H]3SC2)c1.O=C(O)C(F)(F)F | 4 | 2 | 0.5 | 0.5 | > 1280 |  |
| C[C@@H](O)[C@H]1C(=O)N2C(C(=O)O)=C(S[C@@H]3CN[C@H](C(=O)N(C)C)C3)[C@H](C)[C@H]12 [MEROPENEM] |  |  | 0.031 (≈ 0.0808 µM) | 0.031 (≈ 0.0808 µM) | > 1280 |  |

From ChEMBL document CHEMBL5506000, “Design, synthesis and antibacterial evaluation of low toxicity amphiphilic-cephalosporin derivatives” (Eur J Med Chem, 2024)
